Entries after “also recorded” stand apart in the source; their conditions may differ.
Legend:
[1] = system: Fo5 tumors; experiment: ex vivo FACS analysis of trastuzumab resistant Fo5 tumors; format: in vivo, FVB mice
Description: Tumors were harvested after 10-14 days of tucatinib 50 mg/kg treatment for Fo5 tumors and analyzed by FACS.
In vivo mouse studies. Female MMTV/Balb/c and FVB mice between 6 to 8 weeks of age were utilized for experiments. Treatment groups consisted of n=5 to 8 mice per group. […] Randomization and treatment commenced at approximately day 10 post-inoculation for the H2N113 tumor model with tumor sizes varying between 40 to 80 mm^3 and approximately day 14 for the Fo5 tumor model with tumor sizes varying between 60 to 120 mm^3. Tumor volumes were calculated using the equation […], where length and width refer to the larger and smaller dimensions collected at each measurement. […] Immunotherapy and isotype controls in both models were delivered on days 0, 4, 8, and 12. Tumor volumes were measured twice weekly with calipers. Survival was monitored and determined when the tumors reached an ethical limit of 1500 mm^3.
Flow cytometry analysis. For ex vivo studies, tumors were dissected, mechanically morcellated and passed through 70 μm filters. Cells were then resuspended in 30 μg/mL DNAse (Sigma-Aldrich) followed by Fc block (clone 2.4g2). Single cell suspensions were then stained with antibody cocktails for various TIL subsets. In some experiments, isolated cells were stimulated with phorbol 12-myristate 13-acetate (PMA; 50 ng/mL) and ionomycin (1 μg/mL; Sigma-Aldrich) in the presence of GolgiPlug (BD Biosciences; 1:1000) and GolgiStop (BD Biosciences; 1:1500) for 3 to 4 hours prior to flow cytometry analysis. Samples were analyzed by FACS with either Fixable Yellow or Zombie Red to discriminate viable and dead cells. BD fluorosphere counting beads were added to cocktails before running sample.

[2] = system: H2N113 tumors; format: in vivo
[3] = system: Fo5 tumors; experiment: ex vivo RNA sequencing / gene expression analysis of Fo5 tumors; format: in vivo, FVB mice
Description: The harvested tumors were then processed for stranded polyA RNA sequencing. […] Columns represent individual tumor samples and rows are individual genes.
Genomic analysis of mouse samples. RNA was extracted from Fo5 tumors treated in vivo with tucatinib at 50 mg/kg or vehicle (methyl cellulose, 0.5%) for 10 days using TRIzol® Reagent with the PureLink® RNA Mini Kit (Invitrogen™, Thermo Fisher Scientific, Waltham, MA, USA). Quantity and integrity of the total RNA was checked using a TapeStation 2200 (Agilent Technologies) and 500 ng used for library preparation according to standard protocols (NEBNext Ultra II Directional RNA Library Prep Kit for Illumina and NEBNext Poly(A) mRNA Magnetic Isolation Module, NEB). Indexed libraries were pooled and sequenced on a NextSeq500 flowcell (Illumina) to generate 25-50 million paired-end 75 bp reads per sample. Pre-processing and quantile normalization of microarray data was performed with the AFFY package in R. From normalized RNA intensities, unbiased, differential expression analysis and a short list of gene (FDR<0.05) was generated with the LIMMA package in R. Using the differentially expressed genes, pathway and molecular function enrichment analysis was performed in MetCore GeneCo. The GSEA software for gene set enrichment analysis was used with normalized RNA intensities. The false discovery rate was set at <10%. Top gene pathways were selected based on a P-value of <0.05 and a fold change of >1.5. All analyses were performed using R version 3.5.0. Gene sets for differential expression heat maps included interferon-γ 10-gene, preliminary expanded immune 28-gene, T cell inflamed 18-gene, and T-effector 6-gene signature sets, all of which have been associated with PD-1 or PD-L1 blockade amongst a range of tumor types, including breast cancer.

[4] = system: Fo5 tumors; experiment: Fo5 trastuzumab-resistant HER2-positive murine tumor model: tumor growth and survival; format: in vivo, FVB mice
[5] = system: H2N113 tumors; format: in vivo; remark: listed apart in the source
[6] = system: BT474; experiment: growth inhibition assay (CellTitre-Glo), BT474; format: cell-based, human; conditions: BT474, dose-dependent cell growth inhibition; FIG. 5A
[7] = system: SKBR3; experiment: growth inhibition assay (CellTitre-Glo), SKBR3; format: cell-based, human; conditions: SKBR3, dose-dependent cell growth inhibition; FIG. 5B
[8] = system: H2N113; experiment: growth inhibition assay (CellTitre-Glo), H2N113; format: cell-based, murine; conditions: H2N113, dose-dependent cell growth inhibition; FIG. 5C
[9] = system: HER2 signaling pathway; experiment: Western blot for phosphor-HER2 and total HER2, Fo5 tumors; format: in vivo, FVB mice; conditions: Fo5 tumors treated with tucatinib vs vehicle; FIG. 11A
[10] = system: HER2 signaling pathway; experiment: Western blot for phosphor-HER2 and total HER2, H2N113 cells; format: cell-based, murine; conditions: H2N113 cells treated with tucatinib vs vehicle; FIG. 11B
[11] = target: HER2 (Homo sapiens, UniProt P04626); conditions: cellular signaling assays; background statement; cited from earlier work
[12] = Example 4, after 10 days of tucatinib, FIG. 16A-16B
[13] = Example 4, after 10 days of tucatinib, FIG. 16C-16D
[14] = Example 4, after 14 days of tucatinib treatment
[15] = Example 4, tucatinib treated tumors
[16] = tucatinib 100 mg/kg orally once daily, 14 days, FIG. 2L

Sequence of HER2 (P04626 23-1255): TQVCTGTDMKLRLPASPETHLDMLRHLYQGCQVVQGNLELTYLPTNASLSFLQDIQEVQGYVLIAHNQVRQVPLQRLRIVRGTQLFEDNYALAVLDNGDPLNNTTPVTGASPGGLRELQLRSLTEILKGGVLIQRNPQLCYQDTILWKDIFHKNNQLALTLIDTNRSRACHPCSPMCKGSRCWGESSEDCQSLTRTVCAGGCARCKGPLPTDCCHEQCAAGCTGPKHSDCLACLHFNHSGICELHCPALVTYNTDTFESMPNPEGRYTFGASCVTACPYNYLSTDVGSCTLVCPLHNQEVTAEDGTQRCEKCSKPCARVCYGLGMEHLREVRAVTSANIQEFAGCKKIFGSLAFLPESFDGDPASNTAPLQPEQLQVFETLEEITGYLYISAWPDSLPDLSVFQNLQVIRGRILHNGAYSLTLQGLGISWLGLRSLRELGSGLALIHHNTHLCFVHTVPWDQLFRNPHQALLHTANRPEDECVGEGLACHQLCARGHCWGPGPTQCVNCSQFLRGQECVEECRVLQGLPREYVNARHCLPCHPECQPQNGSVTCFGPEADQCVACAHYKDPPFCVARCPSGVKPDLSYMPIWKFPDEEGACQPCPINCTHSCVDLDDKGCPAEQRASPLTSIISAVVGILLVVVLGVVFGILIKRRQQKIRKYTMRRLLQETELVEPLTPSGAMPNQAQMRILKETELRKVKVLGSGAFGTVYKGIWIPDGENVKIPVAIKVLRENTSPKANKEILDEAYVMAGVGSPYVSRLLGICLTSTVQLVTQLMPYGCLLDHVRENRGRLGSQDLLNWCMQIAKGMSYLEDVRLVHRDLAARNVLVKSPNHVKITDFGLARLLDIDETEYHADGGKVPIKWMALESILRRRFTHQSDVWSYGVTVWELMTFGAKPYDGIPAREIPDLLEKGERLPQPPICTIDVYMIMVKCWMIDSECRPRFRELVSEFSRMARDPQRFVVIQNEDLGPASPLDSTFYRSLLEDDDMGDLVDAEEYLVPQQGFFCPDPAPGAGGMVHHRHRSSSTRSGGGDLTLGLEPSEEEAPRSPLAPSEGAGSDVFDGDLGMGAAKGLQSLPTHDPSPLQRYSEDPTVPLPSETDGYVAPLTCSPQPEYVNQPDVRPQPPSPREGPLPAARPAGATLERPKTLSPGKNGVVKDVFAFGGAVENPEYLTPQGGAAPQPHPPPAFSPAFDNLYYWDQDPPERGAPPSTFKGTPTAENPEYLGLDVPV

Cc1cc(Nc2ncnc3ccc(NC4=NC(C)(C)CO4)cc23)ccc1Oc1ccn2ncnc2c1 [tucatinib, N^4-(4-([1,2,4]triazolo[1,5-a]pyridin-7-yloxy)-3-methylphenyl)-N-(4,4-dimethyl-4,5-dihydrooxazol-2-yl) quinazoline-4,6-diamine]
interferon-7 expression in CD4+ effector memory T cell subset [1, 12]: increased
interferon-7 expression in CD8+ effector memory T cell subset [1, 12]: increased
PD-1+ expression in CD8+ effector memory T cells [1, 13]: increased
granzyme B expression in CD8+ effector memory T cells [1, 13]: increased
infiltration of CD8+ T cells expressing PD-1 in the tumor ([1]; tucatinib 50 mg/kg orally once daily, 10-14 days, vs vehicle, FIG. 1A): increase
infiltration of CD8+ T cells expressing IFNγ in the tumor ([1]; tucatinib 50 mg/kg orally once daily, 10-14 days, vs vehicle, FIG. 1B): increase
infiltration of CD8+ T cells expressing FOXP3 in the tumor ([1]; tucatinib 50 mg/kg orally once daily, 10-14 days, vs vehicle, FIG. 1C): increase
CD4+ to CD8+ T cell ratio in the tumor ([1]; tucatinib 50 mg/kg orally once daily, 10-14 days, vs vehicle, FIG. 1D): moderate increase
CD8+ effector memory (CD44+CD62L−) T cell frequency as a percentage of total CD8+ [2, 14]: increased
PD-1+ expression of CD8+ effector memory T cells [2, 14]: significantly higher
TIM3+ expression of CD8+ effector memory T cells [2, 14]: significantly higher
CD8+ proportion ([2]; Example 4, after 14 days of tucatinib treatment vs vehicle): increased
expression of Ki67 in CD8+ effector memory T cells ([2]; Example 4, day 14, FIG. 13A): increased expression
interferon-7 expression in CD8+ effector memory T cells compared to vehicle treated controls ([2]; Example 4, day 14, FIG. 13B): significantly greater
CD49b+ natural killer cell population proportion of CD45+CD3− lymphocytes ([2]; Example 4, day 14, FIG. 14): significantly increased
CD103+ dendritic cells [2, 15]: significant increase
MHC II+ macrophages [2, 15]: significant increase
granulocytic MDSC as proportion of CD45.2+ lymphocytes [2, 15]: significant decrease
neutrophils (CD11c-F4/80-CD11b+Ly6G+Ly6C+) as proportion of CD45.2+ lymphocytes [2, 15]: significant decrease
suppressive MHC II low macrophages as proportion of CD45.2+ lymphocytes [2, 15]: significant decrease
PD-L1 expression on CD45+ cells (total TILs) ([2]; Example 4, tucatinib vs vehicle treated TILs, FIG. 15A-15B): increased intensity
infiltration of natural killer (NK) cells in the tumor ([2]; tucatinib 100 mg/kg orally once daily, 14 days): increase
infiltration of CD8+ T cells in the tumor ([2]; tucatinib 100 mg/kg orally once daily, 14 days, vs vehicle, FIG. 2A): increase
infiltration of CD4+ T cells not expressing FOXP3 in the tumor ([2]; tucatinib 100 mg/kg orally once daily, 14 days, FIG. 2B): increase
infiltration of CD4+ T cells expressing FOXP3 in the tumor ([2]; tucatinib 100 mg/kg orally once daily, 14 days, FIG. 2C): increase
infiltration of CD8+ T cells expressing Ki67 in the tumor ([2]; tucatinib 100 mg/kg orally once daily, 14 days, FIG. 2D): increase
infiltration of CD8+ T cells expressing IFNγ in the tumor ([2]; tucatinib 100 mg/kg orally once daily, 14 days, FIG. 2E): increase
infiltration of CD8+ T cells expressing PD-1 in the tumor ([2]; tucatinib 100 mg/kg orally once daily, 14 days, FIG. 2F): increase
infiltration of CD8+ T cells expressing OX40 in the tumor ([2]; tucatinib 100 mg/kg orally once daily, 14 days, FIG. 2G): increase
infiltration of CD8+ T cells expressing TIM3 in the tumor ([2]; tucatinib 100 mg/kg orally once daily, 14 days, FIG. 2H): increase
infiltration of neutrophils in the tumor ([2]; tucatinib 100 mg/kg orally once daily, 14 days, FIG. 2J): decrease
percentage of CD11 b dendritic cells in the tumor ([2]; tucatinib 100 mg/kg orally once daily, 14 days, FIG. 2K): increase
percentage of MHC-II high in the tumor [2, 16]: increase
percentage of MHC-II low in the tumor [2, 16]: decrease
genes associated with favorable clinical response to checkpoint inhibitors ([3]; day 10 post treatment, differential gene expression, FIG. 21A-21D): upregulation
genes related to immune cell function ([3]; day 10 post treatment, tucatinib 50 mg/kg vs vehicle, FIG. 17, 18A-18B): significant upregulation
genes related to antigen presentation ([3]; day 10 post treatment, tucatinib 50 mg/kg vs vehicle, FIG. 19, 20A-20B): significant upregulation
expression of genes predictive of response to immunotherapy (IFNγ-related gene expression signature, expanded immune signature) ([3]; stranded polyA RNA sequencing, tucatinib vs vehicle, FIG. 3A, 3B): increased expression
tumor growth ([4]; tucatinib 25, 50, 100 mg/kg orally once daily vs vehicle, p<0.05): significantly inhibited tumor growth in a dose-dependent manner; also recorded: significant dose-dependent tumor growth inhibition
survival ([4]; tucatinib at increasing doses vs vehicle, FIG. 9B): improved survival
tumor growth ([5]; tucatinib at increasing doses by oral gavage vs vehicle): significant dose-dependent tumor growth inhibition
survival ([5]; tucatinib at increasing doses vs vehicle, FIG. 8B): improved survival
GI50 at 72 hours [6]: nanomolar range
GI50 at 72 hours [7]: nanomolar range
GI50 at 72 hours [8]: nanomolar range
HER2 signaling pathway (phosphor-HER2 and total HER2) [9]: Inhibition of the HER2 signaling pathway
HER2 signaling pathway (phosphor-HER2 and total HER2) [10]: Inhibition of the HER2 signaling pathway
selectivity for HER2 compared to the closely related kinase EGFR [11]: > 1000 fold

— patent publication US20240024320A1, “METHODS OF TREATING CANCER WITH A COMBINATION OF TUCATINIB AND AN ANTI-PD-1/ANTI-PD-L1 ANTIBODY” (Seagen Inc., priority 2020, published 2024)
